Test results from paper PMC7031696 (Cell chemical biology, 2019).
Read-outs that look alike come from different tables or passages of the source.

Key:
[1] = system: Plasmodium falciparum 3D7-A10 parasites; assay: Stage specificity assay (8-h exposure of synchronized stages, IC50^8h); type: cell-based; details: for IC50: Plasmodium falciparum
[2] = system: asynchronous 3D7-A10 parasite cultures; assay: Standard 72-h exposure asexual blood stage susceptibility assay (IC50^72h); type: cell-based, Plasmodium falciparum; details: Plasmodium falciparum, 3D7, 72 h, read-out: Overall (72hr assay) Mean IC50 (IC50^72h)
[3] = system: 3D7-MR4 trophozoite parasite-infected RBCs; assay: Metabolomic profiling (hydrophilic metabolite changes, UHPLC-MS); type: cell-based, Plasmodium falciparum
[4] = system: 3D7-MR4 trophozoite parasite-infected RBCs; details: 10 × IC50^72h; ref Allman et al., 2016; cited from earlier work

## COCCNCC(O)Cn1c2ccc(Cl)cc2c2cc(Cl)ccc21 (stereo not shown) [MMV019017]
[1]; 3D7-A10
  Ratio lowest IC50 8hr/IC50 72hr: 4.4
[1]; 3D7, 8 h, read-out: IC50^8h values at all tested stages, 8-h exposures, all asexual blood stages
  IC50: > 1000 nM
[1]; 3D7, read-out: Early rings Mean IC50 (IC50^8h), 8-h exposure 0–8 hr, 3D7-A10, survival at 60 h
  IC50: 8420 nM
[1]; 3D7, read-out: Early trophozoites Mean IC50 (IC50^8h), 8-h exposure 16–24 hr, 3D7-A10, survival at 60 h
  IC50: 1340 nM
[1]; 3D7, read-out: Late rings Mean IC50 (IC50^8h), 8-h exposure 8–16 hr, 3D7-A10, survival at 60 h
  IC50: 8660 nM
[1]; 3D7, read-out: Late trophozoites Mean IC50 (IC50^8h), 8-h exposure 24–32 hr, 3D7-A10, survival at 60 h
  IC50: 1710 nM
[1]; 3D7, read-out: Schizonts Mean IC50 (IC50^8h), 8-h exposure 32–40 hr, 3D7-A10, survival at 60 h
  IC50: 3060 nM
[2]
  IC50: 306 nM
[3]; metabolite 3-phosphoglycerate, log2 fold change
  Log2(fold changes) 3-phosphoglycerate: -0.1375
[3]; metabolite 4-Pyridoxic acid, log2 fold change
  Log2(fold changes) 4-Pyridoxic acid: 0.0658
[3]; metabolite 4-aminobutyrate, log2 fold change
  Log2(fold changes) 4-aminobutyrate: 1.1150
[3]; metabolite 4-phosphopantetheine, log2 fold change
  Log2(fold changes) 4-phosphopantetheine: 0.0000
[3]; metabolite 4-phosphopantothenate, log2 fold change
  Log2(fold changes) 4-phosphopantothenate: -1.0497
[3]; metabolite 5-aminopentanoic acid, log2 fold change
  Log2(fold changes) 5-aminopentanoic acid: 0.0000
[3]; metabolite 5-methyl-THF, log2 fold change
  Log2(fold changes) 5-methyl-THF: 0.0000
[3]; metabolite 5-phosphoribosyl-1-pyrophosphate, log2 fold change
  Log2(fold changes) 5-phosphoribosyl-1-pyrophosphate: -1.1636
[3]; metabolite 6-phospho-D-gluconate, log2 fold change
  Log2(fold changes) 6-phospho-D-gluconate: -0.4356
[3]; metabolite HVDD
  Log2(fold change) HVDD: 0.0000
[3]; metabolite Hydroxyisocaproic acid
  Log2(fold change) Hydroxyisocaproic acid: 0.0000
[3]; metabolite IDP
  Log2(fold change) IDP: 0.0000
[3]; metabolite IMP
  Log2(fold change) IMP: 0.0176
[3]; metabolite Inositol
  Log2(fold change) Inositol: 0.0000
[3]; metabolite Isopentyl-PP
  Log2(fold change) Isopentyl-PP: 0.0000
[3]; metabolite L-arginino-succinate
  Log2(fold change) L-arginino-succinate: 0.0000
[3]; metabolite LD
  Log2(fold change) LD: -2.3846
[3]; metabolite Myristoyl/tetradecanoyl-CoA
  Log2(fold change) Myristoyl/tetradecanoyl-CoA: 0.0000
[3]; metabolite N-Acetyl-L-alanine
  Log2(fold change) N-Acetyl-L-alanine: -0.1766
[3]; metabolite N-acetyl-L-ornithine
  Log2(fold change) N-acetyl-L-ornithine: -1.7936
[3]; metabolite N-acetyl-glucosamine-1/6-phosphate
  Log2(fold change) N-acetyl-glucosamine-1/6-phosphate: -1.5222
[3]; metabolite N-acetyl-glutamate
  Log2(fold change) N-acetyl-glutamate: 0.3951
[3]; metabolite N-acetyl-glutamine
  Log2(fold change) N-acetyl-glutamine: 0.6689
[3]; metabolite N-carbamoyl-L-aspartate
  Log2(fold change) N-carbamoyl-L-aspartate: -1.9472
[3]; metabolite NAD+
  Log2(fold change) NAD+: -0.1399
[3]; metabolite NADH
  Log2(fold change) NADH: 0.8540
[3]; metabolite NADP+
  Log2(fold change) NADP+: 0.2168
[3]; metabolite NADPH
  Log2(fold change) NADPH: 0.4083
[3]; metabolite O-acetyl-L-serine
  Log2(fold change) O-acetyl-L-serine: 0.0000
[3]; metabolite Octoluse 8/1P
  Log2(fold change) Octoluse 8/1P: -0.2135
[3]; metabolite Octoluse Bisphosphate
  Log2(fold change) Octoluse Bisphosphate: -5.4193
[3]; metabolite PD
  Log2(fold change) PD: -1.1341
[3]; metabolite PE
  Log2(fold change) PE: 0.0923
[3]; metabolite PEE
  Log2(fold change) PEE: 0.2942
[3]; metabolite PEEK
  Log2(fold change) PEEK: -0.4238
[3]; metabolite PVNF
  Log2(fold change) PVNF: -4.6843
[3]; metabolite Pyroglutamic acid
  Log2(fold change) Pyroglutamic acid: 0.4950
[3]; metabolite Pyrophosphate
  Log2(fold change) Pyrophosphate: -2.5918
[3]; metabolite Ribose-5-phosphate
  Log2(fold change) Ribose-5-phosphate: 0.0000
[3]; metabolite S-adenosyl-L-homocysteine
  Log2(fold change) S-adenosyl-L-homocysteine: -0.4383
[3]; metabolite S-adenosyl-L-methioninamine
  Log2(fold change) S-adenosyl-L-methioninamine: 0.0000
[3]; metabolite S-adenosyl-L-methionine
  Log2(fold change) S-adenosyl-L-methionine: 0.0000
[3]; metabolite S-methyl-5'-thioadenosine
  Log2(fold change) S-methyl-5'-thioadenosine: 0.0000
[3]; metabolite SD
  Log2(fold change) SD: -1.6540
[3]; metabolite SDL
  Log2(fold change) SDL: 0.0000
[3]; metabolite SID
  Log2(fold change) SID: 0.0000
[3]; metabolite Sedoheptulose bisphosphate
  Log2(fold change) Sedoheptulose bisphosphate: -1.7256
[3]; metabolite Thiamine pyrophosphate
  Log2(fold change) Thiamine pyrophosphate: 0.0000
[3]; metabolite UDP-D-glucose, log2 fold change
  Log2(fold changes) UDP-D-glucose: 0.0449
[3]; metabolite UDP-D-glucuronate, log2 fold change
  Log2(fold changes) UDP-D-glucuronate: -0.4277
[3]; metabolite UDP-N-acetyl-glucosamine, log2 fold change
  Log2(fold changes) UDP-N-acetyl-glucosamine: -0.2402
[3]; metabolite UDP, log2 fold change
  Log2(fold changes) UDP: -1.4536
[3]; metabolite UMP, log2 fold change
  Log2(fold changes) UMP: -0.1145
[3]; metabolite UTP, log2 fold change
  Log2(fold changes) UTP: -1.8511
[3]; metabolite hydroxyphenylpyruvate
  Log2(fold change) hydroxyphenylpyruvate: 0.0000
[3]; metabolite hydroxyproline/Aminolevulinate
  Log2(fold change) hydroxyproline/Aminolevulinate: 0.0000
[3]; metabolite hypoxanthine
  Log2(fold change) hypoxanthine: 1.0399
[3]; metabolite indole
  Log2(fold change) indole: 0.2468
[3]; metabolite inosine
  Log2(fold change) inosine: 0.3793
[3]; metabolite isoleucine
  Log2(fold change) isoleucine: 0.0000
[3]; metabolite lactate
  Log2(fold change) lactate: -0.6725
[3]; metabolite leucine
  Log2(fold change) leucine: 0.0000
[3]; metabolite lysine
  Log2(fold change) lysine: 0.0000
[3]; metabolite malate
  Log2(fold change) malate: 0.0811
[3]; metabolite maleic acid
  Log2(fold change) maleic acid: 0.0000
[3]; metabolite methionine
  Log2(fold change) methionine: 0.0000
[3]; metabolite myo-inositol
  Log2(fold change) myo-inositol: -2.8253
[3]; metabolite nicotinamide mononucleotide
  Log2(fold change) nicotinamide mononucleotide: 0.0000
[3]; metabolite nicotinate
  Log2(fold change) nicotinate: 1.9078
[3]; metabolite ornithine
  Log2(fold change) ornithine: 0.0801
[3]; metabolite orotate
  Log2(fold change) orotate: 1.9702
[3]; metabolite orotidine-5'-phosphate
  Log2(fold change) orotidine-5'-phosphate: 0.0000
[3]; metabolite oxaloacetate
  Log2(fold change) oxaloacetate: 0.0000
[3]; metabolite p-aminobenzoate
  Log2(fold change) p-aminobenzoate: 0.0000
[3]; metabolite p-hydroxybenzoate
  Log2(fold change) p-hydroxybenzoate: 0.7031
[3]; metabolite pantothenate
  Log2(fold change) pantothenate: 0.0000
[3]; metabolite phenylalanine
  Log2(fold change) phenylalanine: 0.0000
[3]; metabolite phenylpyruvate
  Log2(fold change) phenylpyruvate: 1.2139
[3]; metabolite phosphoenolpyruvate
  Log2(fold change) phosphoenolpyruvate: 0.7560
[3]; metabolite prephenate
  Log2(fold change) prephenate: 0.0000
[3]; metabolite proline
  Log2(fold change) proline: 0.0000
[3]; metabolite pyridoxine
  Log2(fold change) pyridoxine: 0.0000
[3]; metabolite pyruvate
  Log2(fold change) pyruvate: -0.9980
[3]; metabolite riboflavin
  Log2(fold change) riboflavin: 0.0000
[3]; metabolite ribose
  Log2(fold change) ribose: 0.0000
[3]; metabolite ribose-phosphate
  Log2(fold change) ribose-phosphate: -0.9470
[3]; metabolite ribulose-5-phosphate
  Log2(fold change) ribulose-5-phosphate: 0.0000
[3]; metabolite serine
  Log2(fold change) serine: 0.0000
[3]; metabolite sn-glycerol-3-phosphate
  Log2(fold change) sn-glycerol-3-phosphate: 0.0194
[3]; metabolite succinate/Methylmalonic acid
  Log2(fold change) succinate/Methylmalonic acid: 0.4365
[3]; metabolite succinyl-CoA/methylmalonyl-CoA
  Log2(fold change) succinyl-CoA/methylmalonyl-CoA: 0.0000
[3]; metabolite taurine
  Log2(fold change) taurine: 0.0000
[3]; metabolite thiamine
  Log2(fold change) thiamine: 0.0000
[3]; metabolite threonine/homoserine
  Log2(fold change) threonine/homoserine: 0.0000
[3]; metabolite thymidine
  Log2(fold change) thymidine: -1.7681
[3]; metabolite thymine, log2 fold change
  Log2(fold changes) thymine: -1.7003
[3]; metabolite trehalose-6-Phosphate, log2 fold change
  Log2(fold changes) trehalose-6-Phosphate: 0.0000
[3]; metabolite tryptophan, log2 fold change
  Log2(fold changes) tryptophan: 0.0000
[3]; metabolite tyrosine, log2 fold change
  Log2(fold changes) tyrosine: 0.0000
[3]; metabolite uridine, log2 fold change
  Log2(fold changes) uridine: -0.5758
[4]
  levels of cAMP: decreased
  levels of the deoxyribonucleotides dAMP and dTMP: increased
  nucleoside di- and tri-phosphate levels (GDP, UDP, GTP, dATP, dGTP/ATP, dUTP): decreased
  peptide levels (hemoglobin catabolism signature): decreased peptide levels
